24 compounds from patent US11028090B2 (Dong Wha Pharm. Co., Ltd., priority 2017, dated 2021) can be followed below.

Structures can show the parent of a compound that is named as a salt. Where two headings read alike, the source gives them in different places.

The target of the assay is BRD4 (BD1+BD2) bromodomain (Homo sapiens (Human), UniProt O60885). The assay can be described thus: BRD4 binding inhibition (AlphaScreen, GST-BRD4 vs tetraacetylated histone H4 peptide). The protocol:
A mixture comprising 100 nM GST-BRD4 (BD1+BD2) and 100 nM biotinylated acetyl-histone H4 (Lys5,8,12,16) peptide was prepared in assay buffer (50 mM HEPES pH 7.4; 25 mM NaCl; 0.05% Tween 20; 0.1% bovine serum albumin (BSA); 10 mM dithiothreitol (DTT)). After adding 6 μl of the mixture to the diluent, 6 μl of the pre-mixed AlphaLISA Glutathione Acceptor Beads and AlphaScreen Streptavidin Donor Beads (PerkinElmer, 10 μg/ml in assay buffer, respectively) was added thereto. The samples were incubated in the dark at room temperature for 30 minutes (shaking at 300 rpm). Then, the signals were measured with PerkinElmer Envision HTS Multilabel Reader using an alpha screen protocol of PerkinElmer. Each plate contained the negative control in which biotinylated acetyl-histone H4 peptide and GST-BRD4 (BD1+BD2) were replaced by assay buffer. In the case of using the software GraphPad Prism for calculation, the negative control point was input as a low standard value. The positive control (probe molecule l-BET762 containing protein/peptide mixture) proceeded to pipetting.

The mark [1] stands for this setting: GST-BRD4 (BD1+BD2) / biotinylated acetyl-histone H4 (Lys5,8,12,16) peptide, read-out: IC50, BRD4 binding inhibition.
Setting [2] is: GST-BRD4 (BD1+BD2) vs biotinylated acetyl-histone H4 peptide, AlphaScreen, read-out: BRD4 IC50.

As a reminder, the IC50 is the concentration needed to halve the response being measured. For the compound `COc1cc2nc(NCCCCNC(=O)N3CCOCC3)c3nnc(C)n3c2cc1OC` [Example 92, morpholine-4-carboxylic acid-[4-(7,8-dimethoxy-1-methyl-[1,2,4]triazolo[4,3-a]quinoxaline-4-ylamino)-butyl]-amide], the IC50 under setting [1] is at most 50 nM and the IC50 under setting [2] amounted to 41 nM. As to `COc1cc2nc(NCCCCNC(=O)Nc3ccccc3)c3nnc(C)n3c2cc1OC` [Example 94], the IC50 under setting [2] stood at 57 nM. Turning to `COc1cc2nc(NCCCCNC(=O)c3ccc(Cl)cc3)c3nnc(C)n3c2cc1OC` [Example 100, 4-chloro-N-[4-(7,8-dimethoxy-1-methyl-[1,2,4]triazolo[4,3-a]quinoxaline-4-ylamino)-butyl]-benzamide], under setting [2], the IC50 is 69 nM. Turning to `COc1cc2nc(NCCCCNC(=O)SC(C)C)c3nnc(C)n3c2cc1OC` [Example 110, [4-(7,8-dimethoxy-1-methyl-[1,2,4]triazolo[4,3-a]quinoxaline-4-ylamino)-butyl]-thiocarbamic acid-S-isopropylester], the 50% inhibitory concentration (IC50) was at most 50 nM under setting [1] and 35 nM under setting [2]. `COc1cccc2c1nc(NCCCCN)c1nnc(C)n12` [Example 118, N^1-(6-methoxy-1-methyl-[1,2,4]triazolo[4,3-a]quinoxaline-4-yl)-butane-1,4-diamine dihydrochloride]: under setting [2], the IC50 was 54 nM.

`COc1cccc2c1nc(NCCCCNC(=O)C(C)(C)C)c1nnc(C)n12` [Example 119, N-[4-(6-methoxy-1-methyl-[1,2,4]triazolo[4,3-a]quinoxaline-4-ylamino)-butyl]-2,2-dimethyl-propionamide]: under setting [2], the IC50 came out at 79 nM. On the same count and under the same terms, as for `COc1ccc2nc(NCCCCNC(=O)OC(C)(C)C)c3nnc(C)n3c2c1` [Example 121, [4-(8-methoxy-1-methyl-[1,2,4]triazolo[4,3-a]quinoxaline-4-ylamino)-butyl]-carbamic acid-tert-butylester], the figure is 55 nM. In the case of `COc1ccc2nc(NCCCCNC(=O)C(C)(C)C)c3nnc(C)n3c2c1` [Example 123, N-[4-(8-methoxy-1-methyl-[1,2,4]triazolo[4,3-a]quinoxaline-4-ylamino)-butyl]-2,2-dimethyl-propionamide], the IC50 runs as follows: under setting [1], at most 50 nM; under setting [2], 42 nM.

Take `COc1ccc2nc(NCCCCNC(=O)[C@H](O)C(C)C)c3nnc(C)n3c2c1` [Example 125, 2-(R)-hydroxy-N-[4-(8-methoxy-1-methyl-[1,2,4]triazolo[4,3-a]quinoxaline-4-ylamino)-butyl]-3-methyl-butyramide]: the IC50 by setting is: under setting [1], at most 50 nM; under setting [2], 31 nM.

As for `COc1ccc2nc(NCCCCNC(=O)[C@@H](O)C(C)C)c3nnc(C)n3c2c1` [Example 126, 2-(S)-hydroxy-N-[4-(8-methoxy-1-methyl-[1,2,4]triazolo[4,3-a]quinoxaline-4-ylamino)-butyl]-3-methyl-butyramide], the IC50 was at most 10 nM under setting [1] and 4 nM under setting [2].

With `COc1c(C)ccc2c1nc(NCCCCNC(=O)OC(C)(C)C)c1nnc(C)n12` [Example 130, {4-[6-methoxy-1,7-dimethyl-[1,2,4]triazolo[4,3-a]quinoxaline-4-ylamino]-butyl}-carbamic acid-tert-butylester], the IC50 is at most 50 nM under setting [1] and 36 nM under setting [2].

As to `COc1c(C)ccc2c1nc(NCCCCNC(=O)OCC(C)C)c1nnc(C)n12` [Example 134, [4-(6-methoxy-1,7-dimethyl-[1,2,4]triazolo[4,3-a]quinoxaline-4-ylamino)-butyl]-carbamic acid isobutylester], the IC50 by setting is: under setting [1], at most 50 nM; under setting [2], 19 nM. In the same order, the values of `COc1c(C)ccc2c1nc(NCCCCNC(=O)[C@H](O)C(C)C)c1nnc(C)n12` [Example 136, 2-(R)-hydroxy-N-[4-(6-methoxy-1,7-dimethyl-[1,2,4]triazolo[4,3-a]quinoxaline-4-ylamino)-butyl]-3-methyl-butyramide] are at most 50 nM and 58 nM. In the same order, the values of `COc1c(C)ccc2c1nc(NCCCCNC(=O)c1ccccc1F)c1nnc(C)n12` [Example 139, 2-fluoro-N-[4-(6-methoxy-1,7-dimethyl-[1,2,4]triazolo[4,3-a]quinoxaline-4-ylamino)-butyl]-benzamide] are at most 50 nM and 40 nM. As for `COc1cc(C(F)(F)F)cc2c1nc(NCCCCNC(=O)OC(C)C)c1nnc(C)n12` [Example 144, [4-(6-methoxy-1-methyl-8-trifluoromethyl-[1,2,4]triazolo[4,3-a]quinoxaline-4-ylamino)-butyl]-carbamic acid isopropylester], the IC50 under setting [1] is at most 50 nM and the IC50 under setting [2] came out at 38 nM.

For `COc1cc(C(F)(F)F)cc2c1nc(NCCCCNC(=O)CC(C)C)c1nnc(C)n12` [Example 145, N-[4-(6-methoxy-1-methyl-8-trifluoromethyl-[1,2,4]triazolo[4,3-a]quinoxaline-4-ylamino)-butyl]-3-methyl-butyramide], the IC50 is at most 50 nM under setting [1] and 47 nM under setting [2]. Regarding `COc1cc2c(cc1C)nc(NCCCCNC(=O)[C@H](O)C(C)C)c1nnc(C)n12` [Example 152, 2-(R)-hydroxy-N-[4-(8-methoxy-1,7-dimethyl-[1,2,4]triazolo[4,3-a]quinoxaline-4-ylamino)-butyl]-3-methyl-butyramide], the IC50 under setting [2] turned out to be 96 nM. For `COc1cc2c(cc1C)nc(NCCCCNC(=O)c1ccccc1)c1nnc(C)n12` [Example 154, N-[4-(8-methoxy-1,7-dimethyl-[1,2,4]triazolo[4,3-a]quinoxaline-4-ylamino)-butyl]-benzamide], under setting [2], the 50% inhibitory concentration (IC50) was 78 nM. The same measure, in the same setting: as for `COc1cc2c(cc1C)nc(NCCCCNC(=O)c1ccccc1F)c1nnc(C)n12` [Example 155, 2-fluoro-N-[4-(8-methoxy-1,7-dimethyl-[1,2,4]triazolo[4,3-a]quinoxaline-4-ylamino)-butyl]-benzamide], the figure is 77 nM.

As for `Cc1nnc2c(NCCCCNC(=O)[C@H](O)C(C)C)nc3cc4c(cc3n12)OCCO4` [Example 182, 2-(R)-hydroxy-3-methyl-N-[4-(1-methyl-8,9-dihydro-7,10-dioxa-2,3,5,11b-tetraaza-cyclopenta[a]anthracene-4-ylamino)-butyl]-butyramide], the IC50 under setting [1] is at most 50 nM and the IC50 under setting [2] was found to be 22 nM. In the same order, the values of `CC(=O)OCC(=O)NCCCCNc1nc2cc3c(cc2n2c(C)nnc12)OCCO3` [Example 184] are at most 50 nM and 30 nM.

As to `COc1cc2c(nc(NCCCCNC(=O)CC(C)C)c3nnc(C)n32)c(OC)c1OC` [Example 195, 3-methyl-N-[4-(6,7,8-trimethoxy-1-methyl-[1,2,4]triazolo[4,3-a]quinoxaline-4-ylamino)-butyl]-butyramide], the IC50 under setting [2] was 69 nM. Regarding `Cc1nnc2c(NCCCCNC(=O)OC(C)(C)C)nc3cc(C(=O)O)ccc3n12` [Example 200, 4-[(4-tert-butoxycarbamoylamino)-butylamino]-1-methyl-[1,2,4]triazolo[4,3-a]quinoxaline-7-carboxylic acid], the IC50 under setting [2] stood at 71 nM. As for `Cc1nnc2c(NCCCCNC(=O)CC(C)C)nc3cc(C(=O)O)ccc3n12` [Example 201, 1-methyl-4-[4-(3-methyl-butyrylamino)-butylamino]-[1,2,4]triazolo[4,3-a]quinoxaline-7-carboxylic acid], the IC50 is, setting by setting: under setting [1], at most 50 nM; under setting [2], 26 nM.
